The source of these data is EP4800016A1, “METTL3 INHIBITOR” (Hangzhou Bangshun Pharmaceutical Co., Ltd., priority 2023, dated 2025).

Some results are limits rather than exact numbers.

In general, IC50 refers to the concentration that inhibits the measured activity by half. Read a low IC50 as higher potency.

One assay relates to Kasumi-1 cells. Description: Kasumi-1 cell inhibitory activity (CellTiter-Glo, 5 days). Type of assay: cell-based. The following applies: Homo sapiens, 120 h, 5 days incubation, CellTiter-Glo luminescence. How it is done:
Test compounds were dissolved in DMSO to prep are a 250×final concentration solution. The initial concentration was 10 µM with 3-fold dilution, resulting in a total of ten concentration points. 4 µL of the compound solution was added to 96 µL of cell culture medium to dilute it to 10×the final concentration. On the first day, Kasumi-1 cells (purchased from Precedo) were suspended in cell culture medium at the desired density, 90 µL of the cell suspension was added to a 96-well plate, and 10 µL of 10×compound solution was added for incubation, with a final DMSO concentration of 0.4% in each well. Incubated at 37 °C, 5% CO2 for 5 days. Before measurement after 5 days, the test plate was placed at room temperature, 50 µL of CellTiter-Glo® reagent (purchased from Promega, Cat. No. G7573) was added, mixed on a shaker for 2 minutes to lyse the cells, and incubated at room temperature for 10 minutes to stabilize the […] signal. Luminescence values were recorded using Paradigm, and the response-concentration curve was fitted with Graphpad Pr ism 8.0 to calculate IC50values. The results of each compound are shown in Table2, where A indicates <100nM, B indicates 100-1000nM, and C indicates >1000nM. [formula]
(In general: In ATP-based viability assays light output follows the ATP content of the culture.)

The next assay deals with T1, METTL3/14 (Homo sapiens, UniProt Q86U44).
T1 construct: purchased active motif 31570
The assay can be described thus: METTL3/14 methyltransferase activity assay (HTRF). The following applies: 10 concentrations, 3-fold dilution from 10 µM. Type of assay: biochemical. How it is done:
The final initial concentration of the compound was 10 µM, with 3-fold serial dilution to give a total of 10 concentrations. 100 nL of the compound was transferred to a 384-well plate and centrifuged at 1000 RPM. 2.5 µL of METTL3/14 (active motif, Cat No. 31570) was added to the test wells and incubated at 25°C for 10 min. 2.5 µL of METTL3-Biotin & SAM (GenScript) was added to the test wells andincubated at 25°C for 60 min. 2.5 µL of YTHDF1 (active motif, Cat No. 31608) was added to the test wells and centrifuged at 1000 RPM. 2.5 µL of Streptavidin-Tb (Perkin Elmer Cat No. 61SATLB) & Flag-mede (Perkin Elmer Cat No. 61FG2DLA) was added to the test wells and centrifuged at 1000 RPM. Incubated at 25°C for 60 min. HTRF was measured using a Plate reader. The results of each compound are shown in Table 1, where A+indicates <10nM, A indicates 10-100nM, B indicates 100-1000nM, and C indicates >1000nM.

T1 sequence (Q86U44 whole entry): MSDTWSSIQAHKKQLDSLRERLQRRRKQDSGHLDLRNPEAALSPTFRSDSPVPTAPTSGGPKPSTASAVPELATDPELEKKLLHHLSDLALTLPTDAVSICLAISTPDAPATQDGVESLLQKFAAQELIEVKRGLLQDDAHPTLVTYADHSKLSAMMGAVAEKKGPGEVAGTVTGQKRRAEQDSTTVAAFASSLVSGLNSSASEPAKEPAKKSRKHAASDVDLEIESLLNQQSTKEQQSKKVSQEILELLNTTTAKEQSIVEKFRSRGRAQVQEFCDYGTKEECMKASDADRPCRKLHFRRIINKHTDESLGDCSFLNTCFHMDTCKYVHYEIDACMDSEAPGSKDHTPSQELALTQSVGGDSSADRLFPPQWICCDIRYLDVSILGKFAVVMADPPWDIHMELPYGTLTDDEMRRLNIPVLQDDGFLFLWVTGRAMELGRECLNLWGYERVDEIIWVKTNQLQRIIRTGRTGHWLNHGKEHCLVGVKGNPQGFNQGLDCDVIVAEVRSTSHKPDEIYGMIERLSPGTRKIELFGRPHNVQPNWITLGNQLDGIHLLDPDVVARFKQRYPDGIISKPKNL
T1 sequence (Q9HCE5 whole entry partner): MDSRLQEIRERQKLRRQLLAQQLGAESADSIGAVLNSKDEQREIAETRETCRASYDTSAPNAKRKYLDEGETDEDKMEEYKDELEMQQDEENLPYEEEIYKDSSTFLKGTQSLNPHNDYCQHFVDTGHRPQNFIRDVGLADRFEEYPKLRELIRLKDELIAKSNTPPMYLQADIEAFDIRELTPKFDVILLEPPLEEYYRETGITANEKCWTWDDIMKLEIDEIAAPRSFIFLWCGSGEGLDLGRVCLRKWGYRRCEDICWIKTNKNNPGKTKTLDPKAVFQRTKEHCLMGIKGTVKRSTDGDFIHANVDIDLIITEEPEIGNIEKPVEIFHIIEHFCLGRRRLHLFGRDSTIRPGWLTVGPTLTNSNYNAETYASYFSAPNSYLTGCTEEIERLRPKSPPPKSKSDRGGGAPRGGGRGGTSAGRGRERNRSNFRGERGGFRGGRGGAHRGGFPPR

As to `O=C(NCc1ccc2cc(CNCC3CCC3)[nH]c2c1)c1cc(=O)n2cc3c(cc2n1)OCCO3` [Example 20, N-((2-(((Cyclobutylmethyl)amino)methyl)-1H-indol-6-yl)methyl)-9-oxo-2,3-dihydro-9H-[1,4]dioxolo[2',3':4,5]pyrido[1,2-a]pyrimidine-7-carboxamide], the figures for the IC50 in the assay with Kasumi-1 cells and on METTL3/14 were 100 to 1000 nM and 10 to 100 nM, respectively.

`O=C(NCc1ccc2cc(CNCC3CC(F)(F)C3)[nH]c2c1)c1cc(=O)n2cc3c(cc2n1)OCO3` [Example 26, N-((2-((((3,3-Difluorocyclobutyl)methyl)amino)methyl)-1H-indol-6-yl)methyl)-8-oxo-8H-[1,3]dioxolo[4',5':4,5]pyrido[1,2-a]pyrimidine-6-carboxamide]: the IC50 in the assay with Kasumi-1 cells lay in the range of 100 to 1000 nM; at METTL3/14 it was 10 to 100 nM.

Consider `O=C(NCc1cc2[nH]c(CNCC3CCC3)cc2s1)c1cc(=O)n2cc3c(cc2n1)OCO3` [Example 32, N-((5-(((Cyclobutylmethyl)amino)methyl)-4H-thieno[3,2-b]pyrrol-2-yl)methyl)-8-oxo-8H-[1,3]dioxolo[4',5':4,5]pyrido[1,2-a]pyrimidine-6-carboxamide], for which the figures for the half-inhibitory concentration (IC50) in the assay with Kasumi-1 cells and on METTL3/14 were 100 to 1000 nM and 10 to 100 nM, respectively.

Regarding `O=C(NCc1ccc2cc(CNCC34CC(F)(C3)C4)[nH]c2c1)c1cc(=O)n2cc3c(cc2n1)OCO3` [Example 36, N-((2-((((3-Fluorobicyclo[1.1.1]pentan-1-yl)methyl)amino)methyl)-1H-indol-6-y1)methyl)-8-oxo-8H-[1,3]dioxolo[4',5':4,5]pyrido[1,2-a]pyrimidine-6-carboxamide], the figures for the 50% inhibitory concentration (IC50) in the assay on Kasumi-1 cells and against METTL3/14 were below 100 nM and below 10 nM, respectively.

For `O=C(NCc1ccc2cc(CNC3CCC(F)(F)C3)[nH]c2c1)c1cc(=O)n2cc3c(cc2n1)OCO3` (stereo not shown) [Example 38, N-((2-(((3,3-Difluorocyclopentyl)amino)methyl)-1H-indol-6-yl)methyl)-8-oxo-8H-[1,3]dioxolo[4',5':4,5]pyrido[1,2-a]pyrimidine-6-carboxamide], the IC50 in the assay with Kasumi-1 cells was 100 to 1000 nM; at METTL3/14 it was below 10 nM.

Turning to `O=C(NCc1cn2cc(CNCC3CCC3)ccc2n1)c1cc(=O)n2cc3c(cc2n1)OCO3` [Example 41, N-((6-(((cyclobutylmethyl)amino)methyl)imidazo[1,2-a]pyridin-2-yl)methyl)-8-oxo-8H-[1,3]dioxolo[4',5':4,5]pyrido[1,2-a]pyrimidine-6-carboxamide], the IC50 in the assay on Kasumi-1 cells was 100 to 1000 nM; on METTL3/14 it was below 10 nM.

As for `O=C(NCc1ccc2cc(CNCC3CCC3)[nH]c2c1)c1cn2ncc3c2c(n1)NCCO3` [Example 44, N-((2-(((Cyclobutylmethyl)amino)methyl)-1H-indol-6-yl)methyl)-7,8-dihydro-6H-9-oxa-2,2a,5,6-tetraazabenzo[cd]azulene-4-carboxamide], the concentration for half-maximal inhibition (IC50) with Kasumi-1 cells was 100 to 1000 nM; on METTL3/14 it was 10 to 100 nM.

`O=C(NCc1ccc2cc(CNCC3CCC3)[nH]c2c1)c1cn2ncc3c2c(n1)NCCC3` [Example 45, N-((2-(((Cyclobutylmethyl)amino)methyl)-1H-indol-6-yl)methyl)-6,7,8,9-tetrahydro-2,2a,5,6-tetraazabenzo[cd]azulene-4-carboxamide]: the results for the concentration for half-maximal inhibition (IC50) in the assay with Kasumi-1 cells and on METTL3/14 were 100 to 1000 nM and 10 to 100 nM, respectively.

As for `O=C(NCc1ccc2cc(CNCC34CC(F)(C3)C4)[nH]c2c1)c1cc(=O)n2cc3c(cc2n1)OCCO3` [Example 46, N-((2-((((3-Fluorobicyclo[1.1.1]pentan-1-yl)methyl)amino)methyl)-1H-indol-6-yl)methyl)-9-oxo-2,3-dihydro-9H-[1,4]dioxolo[2',3':4,5]pyrido[1,2-a]pyrimidine-7-carboxamide], the half-inhibitory concentration (IC50) in the assay on Kasumi-1 cells is below 100 nM; on METTL3/14, below 10 nM.

As to `CC1(CNCc2cc3ccc(CNC(=O)c4cc(=O)n5cc6c(cc5n4)OCO6)cc3[nH]2)CCC1` [Example 51, N-((2-((((1-Methylcyclobutyl)methyl)amino)methyl)-1H-indol-6-yl)methyl)-8-oxo-8H-[1,3]dioxolo[4',5':4,5]pyrido[1,2-a]pyrimidine-6-carboxamide], the concentration for half-maximal inhibition (IC50) in the assay with Kasumi-1 cells was 100 to 1000 nM; on METTL3/14, below 10 nM.

As to `CC1(CNCc2cc3ccc(CNC(=O)c4cc(=O)n5cc6c(cc5n4)OCCO6)cc3[nH]2)CCC1` [Example 52, N-((2-((((1-Methylcyclobutyl)methyl)amino)methyl)-1H-indol-6-yl)methyl)-9-oxo-2,3-dihydro-9H-[1,4]dioxino[2',3':4,5]pyrido[1,2-a]pyrimidine-7-carboxamide], the concentration for half-maximal inhibition (IC50) is 100 to 1000 nM with Kasumi-1 cells and below 10 nM against METTL3/14.

Consider `CC1(CNCc2cc3ccc(CNC(=O)c4cc(=O)n5cc6c(cc5n4)OCO6)cc3[nH]2)CC(F)(F)C1` [Example 53, N-((2-((((3,3-Difluoro-1-methylcyclobutyl)methyl)amino)methyl)-1H-indol-6-yl)methyl)-8-oxo-8H-[1,3]dioxolo[4',5':4,5]pyrido[1,2-a]pyrimidine-6-carboxamide], for which the concentration for half-maximal inhibition (IC50) with Kasumi-1 cells was 100 to 1000 nM; against METTL3/14, below 10 nM.

For the molecule `CC1(CNCc2cc3ccc(CNC(=O)c4cc(=O)n5cc6c(cc5n4)OCCO6)cc3[nH]2)CC(F)(F)C1` [Example 54, N-((2-((((3,3-Difluoro-1-methylcyclobutyl)methyl)amino)methyl)-1H-indol-6-yl)methyl)-9-oxo-2,3-dihydro-9H-[1,4]dioxino[2',3':4,5]pyrido[1,2-a]pyrimidine-7-carboxamide], the values for the IC50 in the assay with Kasumi-1 cells and on METTL3/14 were 100 to 1000 nM and below 10 nM, respectively.

With `[2H]C([2H])(NCc1cc2ccc(CNC(=O)c3cc(=O)n4cc5c(cc4n3)OCO5)cc2[nH]1)C1CCC1` [Example 71, N-((2-(((Cyclobutylmethyl-d2)amino)methyl)-1H-indol-6-yl)methyl)-8-oxo-8H-[1,3]dioxolo[4',5':4,5]pyrido[1,2-a]pyrimidine-6-carboxamide], the half-maximal inhibitory concentration (IC50) in the assay on Kasumi-1 cells was below 100 nM; against METTL3/14, below 10 nM.

For `[2H]C([2H])(NCc1cc2ccc(CNC(=O)c3cc(=O)n4cc5c(cc4n3)OCO5)cc2[nH]1)C12CC(F)(C1)C2` [Example 72, N-((2-((((3-Fluorobicyclo[1.1.1]pentan-1-yl)methyl-d2)amino)methyl)-1H-indol-6-yl)methyl)-8-oxo-8H-[1,3]dioxolo[4',5':4,5]pyrido[1,2-a]pyrimidine-6-carboxamide], the results for the IC50 in the assay on Kasumi-1 cells and on METTL3/14 were below 100 nM and below 10 nM, respectively.

Take `O=C(NCc1ccc2cc(CNCC34CC(CO3)C4)[nH]c2c1)c1cc(=O)n2cc3c(cc2n1)OCCO3` [Example 77, N-((2-((((2-oxabicyclo[2.1.1]hexan-1-yl)methyl)amino)methyl)-1H-indol-6-yl)methyl)-9-oxo-2,3-dihydro-9H-[1,4]dioxino[2',3':4,5]pyrido[1,2-a]pyrimidin-7-carboxamide]: the IC50 in the assay with Kasumi-1 cells was 100 to 1000 nM; against METTL3/14, below 10 nM.

Consider `O=C(NCc1ccc2cc(CNCC34CC(CO3)C4)[nH]c2c1)c1cc(=O)n2cc3c(cc2n1)OCO3` [Example 84, N-((2-((((2-Oxabicyclo[2.1.1]hexan-1-yl)methyl)amino)methyl)-1H-indol-6-yl)methyl)-8-oxo-8H-[1,3]dioxolo[2',3':4,5]pyrido[1,2-a]pyrimidine-6-carboxamide], for which the 50% inhibitory concentration (IC50) in the assay with Kasumi-1 cells is 100 to 1000 nM; on METTL3/14 it was below 10 nM.

For the molecule `O=C(NCc1cc2[nH]c(CNCC3CCC3)cc2cc1F)c1cc(=O)n2cc3c(cc2n1)OCCO3` [Example 85, N-((2-(((Cyclobutylmethyl)amino)methyl)-5-fluoro-1H-indol-6-yl)methyl)-9-oxo-2,3-dihydro-9H-[1,4]dioxino[2',3':4,5]pyrido[1,2-a]pyrimidine-7-carboxamide], the IC50 with Kasumi-1 cells was below 100 nM; at METTL3/14, 10 to 100 nM.

On to `O=C(NCc1cc2[nH]c(CNCC34CC(CO3)C4)cc2cc1F)c1cc(=O)n2cc3c(cc2n1)OCCO3` [Example 86, N-((2-((((2-Oxabicyclo[2.1.1]hexan-1-yl)methyl)amino)methyl)-5-fluoro-1H-indol-6-yl)methyl)-9-oxo-2,3-dihydro-9H-[1,4]dioxino[2',3':4,5]pyrido[1,2-a]pyrimidine-7-carboxamide], for which the IC50 with Kasumi-1 cells fell in the range of 100 to 1000 nM; against METTL3/14, 10 to 100 nM.

Take `O=C(NCc1cc2[nH]c(CNCC34CC(CO3)C4)cc2cc1F)c1cc(=O)n2cc3c(cc2n1)OCO3` [Example 87, N-((2-((((2-Oxabicyclo[2.1.1]hexan-1-yl)methyl)amino)methyl)-5-fluoro-1H-indol-6-yl)methyl)-8-oxo-8H-[1,3]dioxolo[2',3':4,5]pyrido[1,2-a]pyrimidine-6-carboxamide]: the IC50 in the assay with Kasumi-1 cells is 100 to 1000 nM; against METTL3/14 it was 10 to 100 nM.
